Measurements as given in ChEMBL document CHEMBL3046035, “Synthesis and biological evaluation of novel 4,5-dihydropyrazole derivatives as potent anticancer and antimicrobial agents” (Med Chem Res, 2013).
In brackets after ≈: the same amount, converted by molar mass.

Tests used:
Aspergillus niger = assay: Antimicrobial activity against Aspergillus niger ATCC 6275 assessed as growth inhibition after 24 hr by broth microdilution method; type: functional; conditions: ATCC 6275, 24 h
Enterococcus faecalis = assay: Antimicrobial activity against Enterococcus faecalis ATCC 14506 assessed as growth inhibition after 24 hr by broth microdilution method; type: functional; conditions: ATCC 14506, 24 h
Saccharomyces cerevisiae = assay: Antimicrobial activity against Saccharomyces cerevisiae ATCC 9763 assessed as growth inhibition after 24 hr by broth microdilution method; type: functional; conditions: ATCC 9763, 24 h
A549 = assay: Anticancer activity against Homo sapiens (human) A549 cells assessed as inhibition of cell viability after 96 hr by MTT assay; type: functional, cell-based; conditions: A549, 96 h
Staphylococcus aureus = assay: Antimicrobial activity against Staphylococcus aureus ATCC 11632 assessed as growth inhibition after 24 hr by broth microdilution method; type: functional; conditions: ATCC 11632, 24 h
HeLa = assay: Anticancer activity against Homo sapiens (human) HeLa cells assessed as inhibition of cell viability after 96 hr by MTT assay; type: functional, cell-based
Candida tropicalis = assay: Antimicrobial activity against Candida tropicalis ATCC 1369 assessed as growth inhibition after 24 hr by broth microdilution method; type: functional; conditions: ATCC 1369, 24 h
Klebsiella pneumoniae = assay: Antimicrobial activity against Klebsiella pneumoniae ATCC 10031 assessed as growth inhibition after 24 hr by broth microdilution method; type: functional; conditions: ATCC 10031, 24 h
Bacillus subtilis = assay: Antimicrobial activity against Bacillus subtilis ATCC 60511 assessed as growth inhibition after 24 hr by broth microdilution method; type: functional; conditions: ATCC 60511, 24 h
A2780 = assay: Anticancer activity against Homo sapiens (human) A2780 cells assessed as inhibition of cell viability after 96 hr by MTT assay; type: functional, cell-based; conditions: A2780, 96 h
Escherichia coli = assay: Antimicrobial activity against Escherichia coli ATCC 10536 assessed as growth inhibition after 24 hr by broth microdilution method; type: functional; conditions: ATCC 10536, 24 h
Pseudomonas aeruginosa = assay: Antimicrobial activity against Pseudomonas aeruginosa ATCC 10145 assessed as growth inhibition after 24 hr by broth microdilution method; type: functional; conditions: ATCC 10145, 24 h
MCF7 = assay: Anticancer activity against Homo sapiens (human) MCF7 cells assessed as inhibition of cell viability after 96 hr by MTT assay; type: functional, cell-based; conditions: MCF7, 96 h
BGC-823 = assay: Anticancer activity against Homo sapiens (human) BGC823 cells assessed as inhibition of cell viability after 96 hr by MTT assay; type: functional, cell-based; conditions: BGC-823, 96 h

Structure (SMILES)	MIC (Aspergillus niger) [µg/mL]	MIC (Enterococcus faecalis) [µg/mL]	MIC (Saccharomyces cerevisiae) [µg/mL]	IC50 (A549) [nM]	MIC (Staphylococcus aureus) [µg/mL]	IC50 (HeLa) [nM]	MIC (Candida tropicalis) [µg/mL]	MIC (Klebsiella pneumoniae) [µg/mL]	MIC (Bacillus subtilis) [µg/mL]	IC50 (A2780) [nM]	MIC (Escherichia coli) [µg/mL]	MIC (Pseudomonas aeruginosa) [µg/mL]	IC50 (MCF7) [nM]	IC50 (BGC-823) [nM]
Fc1cccc(F)c1C1CC(c2ccccc2)=NN1C1=NC(c2ccc(Cl)cc2)S1 (configuration not stated)	8 (≈ 18.2 µM)	125 (≈ 284 µM)	4 (≈ 9.09 µM)	1560	31.2 (≈ 71 µM)	4940	8 (≈ 18.2 µM)	16 (≈ 36.4 µM)	31.2 (≈ 71 µM)	2720	8 (≈ 18.2 µM)	62.5 (≈ 142 µM)	1690	1410
O=[N+]([O-])c1ccc(C2N=C(N3N=C(c4ccccc4)CC3c3c(F)cccc3F)S2)cc1 (configuration not stated)	125 (≈ 277 µM)	16 (≈ 35.5 µM)	8 (≈ 17.8 µM)	3260	31.2 (≈ 69.4 µM)	6620	125 (≈ 277 µM)	31.2 (≈ 69.4 µM)	62.5 (≈ 139 µM)	4350	31.2 (≈ 69.4 µM)	8 (≈ 17.8 µM)	3220	6110
Cc1ccc(C2N=C(N3N=C(c4ccccc4)CC3c3c(F)cccc3F)S2)cc1 (configuration not stated)	62.5 (≈ 149 µM)	8 (≈ 19.1 µM)	62.5 (≈ 149 µM)	4210	16 (≈ 38.1 µM)	6590	125 (≈ 298 µM)	4 (≈ 9.54 µM)	16 (≈ 38.1 µM)	5140	8 (≈ 19.1 µM)	4 (≈ 9.54 µM)	3230	3220
Oc1ccc(C2N=C(N3N=C(c4ccccc4)CC3c3c(F)cccc3F)S2)cc1 (configuration not stated)	31.2 (≈ 74.1 µM)	31.2 (≈ 74.1 µM)	16 (≈ 38 µM)	3440	16 (≈ 38 µM)	6230	16 (≈ 38 µM)	16 (≈ 38 µM)	31.2 (≈ 74.1 µM)	3140	4 (≈ 9.49 µM)	4 (≈ 9.49 µM)	4320	1040
COc1ccc(C2N=C(N3N=C(c4ccccc4)CC3c3c(F)cccc3F)S2)cc1 (configuration not stated)	8 (≈ 18.4 µM)	16 (≈ 36.7 µM)	16 (≈ 36.7 µM)	2530	16 (≈ 36.7 µM)	6490	8 (≈ 18.4 µM)	4 (≈ 9.18 µM)	4 (≈ 9.18 µM)	3260	16 (≈ 36.7 µM)	4 (≈ 9.18 µM)	2040	1230
Fc1cccc(F)c1C1CC(c2ccccc2)=NN1c1nc(-c2ccccc2)cs1 (configuration not stated)	125 (≈ 299 µM)	8 (≈ 19.2 µM)	62.5 (≈ 150 µM)	3010	31.2 (≈ 74.9 µM)	5910	125 (≈ 299 µM)	62.5 (≈ 150 µM)	8 (≈ 19.2 µM)	3090	31.2 (≈ 74.9 µM)	62.5 (≈ 150 µM)	2230	2010
Fc1cccc(F)c1C1CC(c2ccccc2)=NN1c1nc(-c2cccnc2)cs1 (configuration not stated)	16 (≈ 38.2 µM)	31.2 (≈ 74.7 µM)	31.2 (≈ 74.7 µM)	1430	31.2 (≈ 74.7 µM)	5980	16 (≈ 38.2 µM)	31.2 (≈ 74.7 µM)	31.2 (≈ 74.7 µM)	3180	16 (≈ 38.2 µM)	16 (≈ 38.2 µM)	2450	1110
Fc1cccc(F)c1C1CC(c2ccccc2)=NN1c1nc(-c2ccc(Cl)cc2)cs1 (configuration not stated)	62.5 (≈ 138 µM)	8 (≈ 17.7 µM)	125 (≈ 277 µM)	2110	62.5 (≈ 138 µM)	6240	62.5 (≈ 138 µM)	125 (≈ 277 µM)	31.2 (≈ 69.1 µM)	3560	16 (≈ 35.4 µM)	31.2 (≈ 69.1 µM)	2760	1430
Cc1ccc(-c2csc(N3N=C(c4ccccc4)CC3c3c(F)cccc3F)n2)cc1 (configuration not stated)	62.5 (≈ 145 µM)	8 (≈ 18.5 µM)	62.5 (≈ 145 µM)	1210	4 (≈ 9.27 µM)	4860	125 (≈ 290 µM)	4 (≈ 9.27 µM)	4 (≈ 9.27 µM)	3030	8 (≈ 18.5 µM)	8 (≈ 18.5 µM)	2500	1200
Oc1ccc(-c2csc(N3N=C(c4ccccc4)CC3c3c(F)cccc3F)n2)cc1 (configuration not stated)	16 (≈ 36.9 µM)	125 (≈ 288 µM)	31.2 (≈ 72.1 µM)	1570	16 (≈ 36.9 µM)	7090	125 (≈ 288 µM)	16 (≈ 36.9 µM)	31.2 (≈ 72.1 µM)	2450	62.5 (≈ 144 µM)	62.5 (≈ 144 µM)	3040	2110
O=[N+]([O-])c1ccc(-c2csc(N3N=C(c4ccccc4)CC3c3c(F)cccc3F)n2)cc1 (configuration not stated)	16 (≈ 34.6 µM)	16 (≈ 34.6 µM)	125 (≈ 270 µM)	1930	16 (≈ 34.6 µM)	5760	125 (≈ 270 µM)	16 (≈ 34.6 µM)	16 (≈ 34.6 µM)	2260	125 (≈ 270 µM)	31.2 (≈ 67.6 µM)	2090	1050
Fc1cccc(F)c1C1CC(c2ccccc2)=NN1c1nc(-c2ccc(Br)cc2)cs1 (configuration not stated)	62.5 (≈ 126 µM)	8 (≈ 16.1 µM)	62.5 (≈ 126 µM)	1930	16 (≈ 32.2 µM)	6120	62.5 (≈ 126 µM)	16 (≈ 32.2 µM)	8 (≈ 16.1 µM)	2450	31.2 (≈ 63 µM)	31.2 (≈ 63 µM)	2140	1340
O=C(/C=C/c1c(F)cccc1F)c1ccccc1	62.5 (≈ 256 µM)	125 (≈ 512 µM)	62.5 (≈ 256 µM)	–	31.2 (≈ 128 µM)	–	62.5 (≈ 256 µM)	125 (≈ 512 µM)	125 (≈ 512 µM)	–	125 (≈ 512 µM)	8 (≈ 32.8 µM)	–	–
O=C(O)c1cn(C2CC2)c2cc(N3CCNCC3)c(F)cc2c1=O [CIPROFLOXACIN]	–	≤ 5	–	–	≤ 5	–	–	≤ 1	≤ 1	–	≤ 1	5 (≈ 15.1 µM)	–	–
OC(Cn1cncn1)(Cn1cncn1)c1ccc(F)cc1F [FLUCONAZOLE]	≤ 1	–	≤ 1	–	–	–	≤ 1	–	–	–	–	–	–	–
CCn1cc(C(=O)O)c(=O)c2cc(F)c(N3CCNCC3)cc21 [NORFLOXACIN]	–	5 (≈ 15.7 µM)	–	–	5 (≈ 15.7 µM)	–	–	≤ 1	≤ 1	–	≤ 1	5 (≈ 15.7 µM)	–	–
